US9145389B2, “Benzimidazole compound crystal” (Takeda Pharmaceutical Company Limited, priority 1999, dated 2015)

Experiments:
[1] = test system: Gastric Mucosal Injury Due to Stress of Water Immersion Restraint in Rat; assay: Suppressive action on gastric mucosal injury due to stress of water immersion restraint in rat; assay type: in vivo; details: male SD rats, 3 mg/kg orally 30 minutes before stressing
Protocol: Suppressive Action on Gastric Mucosal Injury Due to Stress of Water Immersion Restraint in Rat
Male SD rats (7 weeks of age, weighing 230 to 250 g) were fasted for 24 hours, after which they were stressed by being housed in restraint cages and immersed to below the xiphoid process in a standing position in a 23° C. constant-temperature water chamber. After 5 hours, the rats were removed from the cages and sacrificed using gaseous carbon dioxide, and their stomachs excised. After the lower portion of the esophagus was clipped, a 1% formalin solution (10 ml) was injected into the stomach via the duodenum, which was then occluded, and the stomach was immersed in the same solution. After 10 minutes, an incision was made along the greater curvature, and the length (mm) of each mucosal injury was measured under a stereomicroscope. The overall sum of the injury lengths in each stomach was taken as the gastric mucosal injury index.
The crystals of (R)-2-[[[3-methyl-4-(2,2,2-trifluoroethoxy)-2-pyridinyl]methyl]sulfinyl]-1H-benzimidazole (R(+)-lansoprazole) as obtained in Example 2 were suspended in 0.5% methyl cellulose (pH 9.5) containing 0.05 M NaHCO3 and orally administered at 30 minutes before stressing (dosing volume 2 ml/kg). Each treatment group comprised 9 animals. The control group (solvent administration group) and the drug administration group were compared by Steel's test.

[2] = Stability during storage at 60° C. (stopper removed), content by HPLC; assay type: physicochemical; details: for Description: appearance after storage at 60° C. (exposed)
Protocol: The crystals of R(+)-lansoprazole as obtained in Example 2 (about 5 mg) and amorphous R(+)-lansoprazole as obtained in Reference Example 1 (about 5 mg) were each taken in a colorless glass bottle, and their stability during storage at 60° C. (stopper removed) was examined. A 25 ml solution (concentration: about 0.2 mg/ml) of the sample after completion of storage in the mobile phase, along with a standard solution prepared using the initial lot, was analyzed under the HPLC conditions shown below, and the R(+)-lansoprazole content (residual percentage) was calculated from the peak area obtained.

Structure (SMILES)	Gastric mucosal injury index ([1]; 5 hours water immersion restraint, mean ± standard error, 9 animals) [mm]	Suppression rate ([1]; versus control group) [%]	Description ([2]; 1 week, listed as Crystal)	Description ([2]; 2 weeks, listed as Crystal)	Description ([2]; 4 weeks)	Content (Residual percentage) ([2]; storage at 60° C. (exposed), 1 week, listed as Crystal) [%]	Content (Residual percentage) ([2]; storage at 60° C. (exposed), 2 weeks, listed as Crystal) [%]	Content (Residual percentage) ([2]; storage at 60° C. (exposed), 4 weeks) [%]	Content retained ([2]; storage at 60° C. (exposed), for up to 4 weeks)	Description ([2]; 1 week, listed as Amorphous)	Description ([2]; 2 weeks, listed as Amorphous)	Content (Residual percentage) ([2]; storage at 60° C. (exposed), 1 week) [%]	Content (Residual percentage) ([2]; storage at 60° C. (exposed), 1 week, listed as Amorphous) [%]	Content (Residual percentage) ([2]; storage at 60° C. (exposed), 2 weeks) [%]	Content (Residual percentage) ([2]; storage at 60° C. (exposed), 2 weeks, listed as Amorphous) [%]
Cc1c(OCC(F)(F)F)ccnc1C[S@@+]([O-])c1nc2ccccc2[nH]1 [Example 2, (R)-2-[[[3-methyl-4-(2,2,2-trifluoroethoxy)-2-pyridinyl]methyl]sulfinyl]-1H-benzimidazole]	0.2 ± 0.2	98.0	Light-brown	Brown	Brown	97.0	93.8	91.7	exceeding 90%	–	–	–	–	–	–
Cc1c(OCC(F)(F)F)ccnc1C[S@@+]([O-])c1nc2ccccc2[nH]1 [Reference Example 1, (R)-2-[[[3-methyl-4-(2,2,2-trifluoroethoxy)-2-pyridinyl]methyl]sulfinyl]-1H-benzimidazole, reference compound]	–	–	–	–	–	–	–	–	–	Brown	Blackish brown	70.8	70.8	57.5	57.5
